Assays:
[1] = tested on: human LIF promoter; assay: LIF promoter luciferase reporter assay; format: cell-based; details: U373MG cells as printed; 100 pM TGFβ1, 20 hours
Experimental: FIG. 4. TGFβ induces the transcription of LIF through an activated Smad complex. (A) Diagrams of the indicator constructs of luciferase LIF. (B) A172 glioma cells were transfected with indicator constructs of luciferase LIF (−634/+32), (−276/+32), (−276/+32) mutSBE or (−73/+32). 16 hours after transfection, the cells were treated with 100 pM TGFβ1 for 20 hours and were analyzed for luciferase activity. (C) U373MG cells were treated with 100 pM TGFβ1 for 3 hours, and ChIP assays were performed with the indicated antibodies and the PCR primers indicated. (D, E) The levels of LIF were determined by means of qRT-PCR analysis in U373MG (D) or GEM neurospheres (E) treated with 100 pM TGFβ1 for 3 hours after silencing mediated by siRNA of the indicated members of the indicated Smad family. Western blotting was performed using antibodies specific for Smads or qRT-PCR of Smad4. The β-actin was determined as an internal normalization control.
Genomic DNA of U373MG was used to amplify the −634/+32 region of the human LIF promoter which was cloned into the pGL2-basic luciferase vector. The deletion constructs (−267/+32), and (−73/+32) were generated by means of digestion of the construct (−634/+32). Two point mutations were introduced in positions −183 bp and −184 bp in the construct (−267/+32) to interrupt the Smad binding element (SBE) and generate the construct (−267/+32) mutSBE. […]

[2] = tested on: LIF expression in mouse neuroprogenitors; assay: LIF induction in mouse neuroprogenitors; format: cell-based; details: from mouse embryos or the subventricular area of adult mice; data not shown

transactivation of LIF promoter reporter constructs (−634/+32 and −276/+32) [1]: capable of transactivating
Substance: TGFβ: TGFβ1 (R&D Systems), used at 100 pM according to the figure legends
induction of LIF in mouse neuroprogenitors [2]: did not induce LIF
